Reference: patent US20220167618A1, “PESTICIDALLY ACTIVE AZOLE-AMIDE COMPOUNDS” (SYNGENTA CROP PROTECTION AG, priority 2019, published 2022)

Columns and labels:
Assay type in all cases: in vivo
[1] = tested on: Diabrotica balteata (Corn Root Worm); test: Example B1: Diabrotica balteata (corn root worm), sprayed maize sprouts; conditions: 96 h, application rate 200 ppm, L2 larvae, 4 days after infestation, read-out: control in at least one of the two categories (mortality or growth inhibition)
Procedure: Example B1: Diabrotica balteata (Corn Root Worm)
Maize sprouts placed onto an agar layer in 24-well microtiter plates were treated with aqueous test solutions prepared from 10′000 ppm DMSO stock solutions by spraying. After drying, the plates were infested with L2 larvae (6 to 10 per well). The samples were assessed for mortality and growth inhibition in comparison to untreated samples 4 days after infestation.

[2] = tested on: Chilo suppressalis (Striped Rice Stemborer); test: Example B4: Chilo suppressalis (striped rice stemborer), artificial diet; conditions: 144 h, application rate 200 ppm, L2 larvae, 6 days after infestation, read-out: control in at least one of the three categories (mortality, anti-feedant or growth inhibition)
Procedure: Example B4: Chilo suppressalis (Striped Rice Stemborer)
24-well microtiter plates with artificial diet were treated with aqueous test solutions prepared from 10′000 ppm DMSO stock solutions by pipetting. After drying, the plates were infested with L2 larvae (6-8 per well). The samples were assessed for mortality, anti-feeding effect, and growth inhibition in comparison to untreated samples 6 days after infestation. Control of Chilo suppressalis by a test sample is given when at least one of the categories mortality, anti-feedant effect, and growth inhibition is higher than the untreated sample.

[3] = tested on: Plutella xylostella (Diamond Back Moth); test: Example B5: Plutella xylostella (diamond back moth), artificial diet, 24-well; conditions: 192 h, application rate 200 ppm, eggs, 8 days after infestation, read-out: control in at least one of the two categories (mortality or growth inhibition)
Procedure: Example B5: Plutella xylostella (Diamond Back Moth)
24-well microtiter plates with artificial diet were treated with aqueous test solutions prepared from 10′000 ppm DMSO stock solutions by pipetting. After drying, Plutella eggs were pipetted through a plastic stencil onto a gel blotting paper and the plate was closed with it. The samples were assessed for mortality and growth inhibition in comparison to untreated samples 8 days after infestation.

[4] = tested on: Spodoptera littoralis (Egyptian Cotton Leaf Worm); test: Example B9: Spodoptera littoralis (Egyptian cotton leaf worm), sprayed cotton leaf discs; conditions: foliar, 72 h, application rate 200 ppm, L1 larvae, 3 days after infestation, read-out: control in at least one of the three categories (mortality, anto-feedant or growth inhibition)
[5] = tested on: Spodoptera littoralis (Egyptian Cotton Leaf Worm); test: Example B10: Spodoptera littoralis (Egyptian cotton leaf worm), uptake via lettuce roots from agar; conditions: 144 h, test rate 12.5 ppm, eggs, 6 days after infestation, read-out: control in at least one of the three categories (mortality, anti-feedant, or growth inhibition)
Excerpt: Example B10: Spodoptera Littoralis (Egyptian Cotton Leaf Worm)
Test compounds were applied by pipette from 10′000 ppm DMSO stock solutions into 24-well plates and mixed with agar. Lettuce seeds were placed onto the agar and the multi well plate was closed by another plate which contained also agar. After 7 days the compound was absorbed by the roots and the lettuce grew into the lid plate. The lettuce leaves were then cut off into the lid plate. Spodoptera eggs were pipetted through a plastic stencil onto a humid gel blotting paper and the lid plate was closed with it. The samples were assessed for mortality, anti-feedant effect and growth inhibition in comparison to untreated samples 6 days after infestation.

[6] = tested on: Myzus persicae (Green Peach Aphid); test: Example B8: Myzus persicae (green peach aphid), intrinsic activity; conditions: 120 h, test rate 12 ppm, 5 days after infestation
Excerpt: Example B8: Myzus persicae (Green Peach Aphid): Intrinsic Activity
Test compounds prepared from 10′000 ppm DMSO stock solutions were applied by pipette into 24-well microtiter plates and mixed with sucrose solution. The plates were closed with a stretched Parafilm. A plastic stencil with 24 holes was placed onto the plate and infested pea seedlings were placed directly on the Parafilm. The infested plate was closed with a gel blotting paper and another plastic stencil and then turned upside down. The samples were assessed for mortality 5 days after infestation.

[7] = tested on: Myzus persicae (Green Peach Aphid); test: Example B12: Myzus persicae (green peach aphid), 96-well sucrose solution; conditions: 120 h, application rate 50 ppm, 5 days after infestation
Excerpt: Example B12: Myzus persicae (Green Peach Aphid)
Test compounds prepared from 10′000 ppm DMSO stock solutions were applied by a liquid handling robot into 96-well microtiter plates and mixed with a sucrose solution. Parafilm was stretched over the 96-well microtiter plate and a plastic stencil with 96 holes was placed onto the plate. Aphids were sieved into the wells directly onto the Parafilm. The infested plates were closed with a gel blotting card and a second plastic stencil and then turned upside down. The samples were assessed for mortality 5 days after infestation.

[8] = tested on: Plutella xylostella (Diamondback Moth); test: Example B13: Plutella xylostella (diamondback moth), artificial diet, 96-well; conditions: 216 h, application rate 500 ppm, eggs/L1 larvae, 9 days after infestation
Procedure: Example B13: Plutella xylostella (Diamondback Moth)
96-well microtiter plates containing artificial diet were treated with aqueous test solutions, prepared from 10′000 ppm DMSO stock solutions, by a liquid handling robot. After drying, eggs (˜30 per well) were infested onto a netted lid which was suspended above the diet. The eggs hatch and L1 larvae move down to the diet. The samples were assessed for mortality 9 days after infestation.

[9] = tested on: Euschistus heros (Neotropical Brown Stink Bug); test: Example B2: Euschistus heros (neotropical brown stink bug), sprayed soybean leaves; conditions: 120 h, application rate 200 ppm, N2 nymphs, 5 days after infestation, read-out: control in at least one of the two categories (mortality or growth inhibition)
Procedure: Example B2: Euschistus heros (Neotropical Brown Stink Bug)
Soybean leaves on agar in 24-well microtiter plates were sprayed with aqueous test solutions prepared from 10′000 ppm DMSO stock solutions. After drying the leaves were infested with N2 nymphs. The samples were assessed for mortality and growth inhibition in comparison to untreated samples 5 days after infestation.

CC(NC(=O)c1cc(C(F)(F)F)cc(C2(C#N)CC2)c1)c1nc(Br)nn1-c1ccc(C#N)cn1 (centres unmarked) [Compound P1, N-[1-[5-bromo-2-(5-cyano-2-pyridyl)-1,2,4-triazol-3-yl]ethyl]-3-(1-cyanocyclopropyl)-5-(trifluoromethyl)benzamide]
≥ 80%: percent control (mortality or growth inhibition) at 200 ppm [1] | percent control (mortality, anti-feedant or growth inhibition) at 200 ppm [2] | percent control (mortality or growth inhibition) at 200 ppm [3] | percent control (mortality, anti-feedant or growth inhibition) at 200 ppm [4] | percent control (mortality, anti-feedant or growth inhibition) at 12.5 ppm [5]

CC(NC(=O)c1cc(C(F)(F)F)nc(C2(C#N)CC2)c1)c1nc(Br)nn1-c1ncc(OCC(F)F)cn1 (centres unmarked) [Compound P4, N-[1-[5-bromo-2-[5-(2,2-difluoroethoxy)pyrimidin-2-yl]-1,2,4-triazol-3-yl]ethyl]-2-(1-cyanocyclopropyl)-6-(trifluoromethyl)pyridine-4-carboxamide]
≥ 80%: percent control (mortality or growth inhibition) at 200 ppm [1] | percent control (mortality, anti-feedant or growth inhibition) at 200 ppm [2] | percent control (mortality or growth inhibition) at 200 ppm [3] | mortality at 12 ppm [6] | percent control (mortality, anti-feedant or growth inhibition) at 200 ppm [4]

CC(NC(=O)c1cc(C2CC2(F)F)cc(C(F)(F)F)c1)c1nc(Br)nn1-c1ccc(OC(F)F)cn1 (centres unmarked) [Compound P7, N-[1-[5-bromo-2-[5-(difluoromethoxy)-2-pyridyl]-1,2,4-triazol-3-yl]ethyl]-3-(2,2-difluorocyclopropyl)-5-(trifluoromethyl)benzamide]
≥ 80%: percent control (mortality or growth inhibition) at 200 ppm [1] | percent control (mortality, anti-feedant or growth inhibition) at 200 ppm [2] | percent control (mortality or growth inhibition) at 200 ppm [3] | percent control (mortality, anti-feedant or growth inhibition) at 200 ppm [4] | mortality at 50 ppm [7] | mortality at 500 ppm [8]

CC(NC(=O)c1cc(C2CC2(F)F)cc(C(F)(F)F)c1)c1nc(Br)nn1-c1ncc(OCC(F)(F)F)cn1 (centres unmarked) [Compound P11, N-[1-[5-bromo-2-[5-(2,2,2-trifluoroethoxy)pyrimidin-2-yl]-1,2,4-triazol-3-yl]ethyl]-3-(2,2-difluorocyclopropyl)-5-(trifluoromethyl)benzamide]
≥ 80%: percent control (mortality or growth inhibition) at 200 ppm [1] | percent control (mortality or growth inhibition) at 200 ppm [9] | percent control (mortality, anti-feedant or growth inhibition) at 200 ppm [2] | percent control (mortality or growth inhibition) at 200 ppm [3] | percent control (mortality, anti-feedant or growth inhibition) at 200 ppm [4] | mortality at 500 ppm [8]

CC(NC(=O)c1cc(C2CC2)nc(C(F)(F)F)c1)c1nc(Br)nn1-c1ncc(OCC(F)F)cn1 (centres unmarked) [Compound P14, N-[1-[5-bromo-2-[5-(2,2-difluoroethoxy)pyrimidin-2-yl]-1,2,4-triazol-3-yl]ethyl]-2-cyclopropyl-6-(trifluoromethyl)pyridine-4-carboxamide]
≥ 80%: percent control (mortality or growth inhibition) at 200 ppm [1] | percent control (mortality, anti-feedant or growth inhibition) at 200 ppm [2] | percent control (mortality or growth inhibition) at 200 ppm [3] | percent control (mortality, anti-feedant or growth inhibition) at 200 ppm [4] | mortality at 50 ppm [7] | mortality at 500 ppm [8]

CC(NC(=O)c1cc(C2CC2)cc(C(F)(F)F)c1)c1nc(Br)nn1-c1ncc(OC(F)F)cn1 (centres unmarked) [Compound P26, N-[1-[5-bromo-2-[5-(difluoromethoxy)pyrimidin-2-yl]-1,2,4-triazol-3-yl]ethyl]-3-cyclopropyl-5-(trifluoromethyl)benzamide]
≥ 80%: percent control (mortality or growth inhibition) at 200 ppm [1] | percent control (mortality, anti-feedant or growth inhibition) at 200 ppm [2] | percent control (mortality or growth inhibition) at 200 ppm [3] | percent control (mortality, anti-feedant or growth inhibition) at 200 ppm [4] | mortality at 50 ppm [7] | mortality at 500 ppm [8]

CC(NC(=O)c1cc(C(F)(F)F)cc(C(C)(C)C#N)c1)c1nc(Br)nn1-c1ncc(OC(F)F)cn1 (centres unmarked) [Compound P35, N-[1-[5-bromo-2-[5-(difluoromethoxy)pyrimidin-2-yl]-1,2,4-triazol-3-yl]ethyl]-3-(1-cyano-1-methyl-ethyl)-5-(trifluoromethyl)benzamide]
≥ 80%: percent control (mortality or growth inhibition) at 200 ppm [1] | percent control (mortality, anti-feedant or growth inhibition) at 200 ppm [2] | percent control (mortality or growth inhibition) at 200 ppm [3] | mortality at 12 ppm [6] | percent control (mortality, anti-feedant or growth inhibition) at 200 ppm [4] | percent control (mortality, anti-feedant or growth inhibition) at 12.5 ppm [5] | mortality at 500 ppm [8]

CC(NC(=O)c1cc(C(F)(F)F)cc(C(C)(C)C#N)c1)c1nc(Br)nn1-c1ccc(C#N)cn1 (centres unmarked) [Compound P36, N-[1-[5-bromo-2-(5-cyano-2-pyridyl)-1,2,4-triazol-3-yl]ethyl]-3-(1-cyano-1-methyl-ethyl)-5-(trifluoromethyl)benzamide]
≥ 80%: percent control (mortality or growth inhibition) at 200 ppm [1] | percent control (mortality or growth inhibition) at 200 ppm [9] | percent control (mortality, anti-feedant or growth inhibition) at 200 ppm [2] | percent control (mortality or growth inhibition) at 200 ppm [3] | percent control (mortality, anti-feedant or growth inhibition) at 200 ppm [4] | mortality at 500 ppm [8]
